{"source": "paper PMC4138103", "about": "(PLoS ONE, 2014)", "key": {"[1]": {"molecular_target": "T1, human TTR (Homo sapiens, UniProt P02766)", "T1 construct": "purchased Sigma Aldrich", "settings": "ref Hamers et al. 2011, cited from earlier work"}, "[2]": {"test_system": "Sprague-Dawley rats", "test": "Bone geometry and densitometry (pQCT of tibia)", "type": "in vivo, Rattus norvegicus", "settings": "for CED, Cortical area of diaphysis / CED-L, Cortical area of diaphysis: M; for Emax: Rattus norvegicus; for Densitometry, diaphysis: Cortical area / Densitometry, diaphysis: Cortical density / Densitometry, diaphysis: Cortical thickness / Densitometry, diaphysis: Endosteal circumference / Densitometry, diaphysis: Periosteal circumference / Densitometry, metaphysis: Total density / Densitometry, metaphysis: Trabecular area / Densitometry, metaphysis: Trabecular density: tibia", "protocol": "Hind limbs were collected and frozen at −20°C. Dissected right tibias were cleaned from soft tissue and stored in Ringer solution at −20°C until analysis. The length of each bone was measured using an electronic sliding caliper to the nearest 0.01 mm (IP65, Sylvac SA, Crissier, Switzerland). […] The thresholds for defining trabecular bone were 280 and 400 mg/cm^3, while cortical bone was defined above a threshold of 710 mg/cm^3. The voxel size was 0.07 mm.\nData were also analyzed using the BMD method, which is based on dose-response modeling of the full data set using a nested family of exponential and Hill models. The analyses were done on data of males and females combined, using sex as a covariate. […] In that case, different Critical Effect Doses (CEDs) and CEDs at the lowest bound of the confidence interval (CED-L) were generated for each sex. If no difference between sexes is detected, a CED and CED-Ls for the combined data is generated. However, this was also done if the curve fits are close, and separate analyses for males and females were then performed manually. CEDs and CED-Ls were calculated at the predefined Critical Effect Size (CES) of 5% (EFSA standard) or 10%."}, "[3]": {"settings": "F, CES 5%, model E2, adipose tissue concentration based"}, "[4]": {"settings": "F, CES 10%, model E2, adipose tissue concentration based"}, "[5]": {"settings": "CES 5%, model E2, adipose tissue concentration based"}, "[6]": {"settings": "CES 10%, model E2, adipose tissue concentration based"}, "[7]": {"settings": "females, CES 5%, total dose based"}, "[8]": {"settings": "males, CES 5%, total dose based"}, "[9]": {"settings": "females, total dose 10 mg/kg bw"}, "[10]": {"settings": "females, total dose 30 mg/kg bw"}, "[11]": {"settings": "females, total dose 100 mg/kg bw"}, "[12]": {"settings": "females, total dose 300 mg/kg bw"}, "[13]": {"settings": "females, total dose 1000 mg/kg bw"}}, "note": "Read-outs that look alike come from different tables or passages of the source."}
{"molecule": "Clc1cc(Cl)c(-c2cc(Cl)c(Cl)c(Cl)c2Cl)cc1Cl", "note": "[PCB 180, 2,2′,3′,4,4′,5,5′-heptachlorobiphenyl]", "values": [{"measurement": "T4 displacement, Pilot experiment", "setting": "[1]; @10000 nM", "value": "27% T4 displacement @10000 nM"}, {"measurement": "IC50", "setting": "[1]; TTR binding", "value": "> 15", "unit": "µM"}, {"measurement": "CED, Trabecular area of metaphysis", "setting": "[2]; [3]", "value": 6230, "unit": "µg/g lipid"}, {"measurement": "CED-L, Trabecular area of metaphysis", "setting": "[2]; [3]", "value": 3714, "unit": "µg/g lipid"}, {"measurement": "CED, Trabecular area of metaphysis", "setting": "[2]; [4]", "value": 12200, "unit": "µg/g lipid"}, {"measurement": "CED-L, Trabecular area of metaphysis", "setting": "[2]; [4]", "value": 7255, "unit": "µg/g lipid"}, {"measurement": "CED, Cortical area of diaphysis", "setting": "[2]; [5]", "value": 5930, "unit": "µg/g lipid"}, {"measurement": "CED-L, Cortical area of diaphysis", "setting": "[2]; [5]", "value": 3506, "unit": "µg/g lipid"}, {"measurement": "CED, Cortical area of diaphysis", "setting": "[2]; [6]", "value": 12200, "unit": "µg/g lipid"}, {"measurement": "CED-L, Cortical area of diaphysis", "setting": "[2]; [6]", "value": 7202, "unit": "µg/g lipid"}, {"measurement": "Emax", "setting": "[2]; F, model E2, controls vs high dose according to the fitted model, read-out: Maximum response, Trabecular area of metaphysis", "value": 9.25, "unit": "%"}, {"measurement": "Emax", "setting": "[2]; females, controls vs high dose, fitted model, read-out: Trabecular area of metaphysis, Maximum response", "value": 8.2, "unit": "%"}, {"measurement": "Emax", "setting": "[2]; males, controls vs high dose, fitted model, read-out: Cortical area of diaphysis, Maximum response", "value": -6.1, "unit": "%"}, {"measurement": "Emax", "setting": "[2]; model E2, controls vs high dose according to the fitted model, read-out: Maximum response, Cortical area of diaphysis", "value": -6.19, "unit": "%"}, {"measurement": "Trabecular area of metaphysis, CED", "setting": "[2]; [7]", "value": 1040, "unit": "mg/kg bw"}, {"measurement": "Trabecular area of metaphysis, CED-L", "setting": "[2]; [7]", "value": 602, "unit": "mg/kg bw"}, {"measurement": "Trabecular area of metaphysis, CED", "setting": "[2]; females, adipose tissue concentration based", "value": 6230, "unit": "µg/g lipid"}, {"measurement": "Trabecular area of metaphysis, Maximum response", "setting": "[2]; females, controls vs high dose, fitted model", "value": 8.30, "unit": "%"}, {"measurement": "Cortical area of diaphysis, CED", "setting": "[2]; [8]", "value": 1380, "unit": "mg/kg bw"}, {"measurement": "Cortical area of diaphysis, CED-L", "setting": "[2]; [8]", "value": 820, "unit": "mg/kg bw"}, {"measurement": "Cortical area of tibial diaphysis, CED", "setting": "[2]; males, adipose tissue concentration based", "value": 5930, "unit": "µg/g lipid"}, {"measurement": "Densitometry, diaphysis: Cortical area", "setting": "[2]; females, total dose 3 mg/kg bw", "value": 3.25, "unit": "mm2"}, {"measurement": "Densitometry, diaphysis: Cortical density", "setting": "[2]; females, total dose 3 mg/kg bw", "value": 1315, "unit": "mg/cm3"}, {"measurement": "Densitometry, diaphysis: Cortical thickness", "setting": "[2]; females, total dose 3 mg/kg bw", "value": 0.49, "unit": "mm"}, {"measurement": "Densitometry, diaphysis: Endosteal circumference", "setting": "[2]; females, total dose 3 mg/kg bw", "value": 5.06, "unit": "mm"}, {"measurement": "Densitometry, diaphysis: Periosteal circumference", "setting": "[2]; females, total dose 3 mg/kg bw", "value": 8.15, "unit": "mm"}, {"measurement": "Densitometry, metaphysis: Total density", "setting": "[2]; females, total dose 3 mg/kg bw", "value": 570, "unit": "mg/cm3"}, {"measurement": "Densitometry, metaphysis: Trabecular area", "setting": "[2]; females, total dose 3 mg/kg bw", "value": 5.33, "unit": "mm2"}, {"measurement": "Densitometry, metaphysis: Trabecular density", "setting": "[2]; females, total dose 3 mg/kg bw", "value": 195, "unit": "mg/cm3"}, {"measurement": "Densitometry, diaphysis: Cortical area", "setting": "[2]; [9]", "value": 3.22, "unit": "mm2"}, {"measurement": "Densitometry, diaphysis: Cortical density", "setting": "[2]; [9]", "value": 1312, "unit": "mg/cm3"}, {"measurement": "Densitometry, diaphysis: Cortical thickness", "setting": "[2]; [9]", "value": 0.49, "unit": "mm"}, {"measurement": "Densitometry, diaphysis: Endosteal circumference", "setting": "[2]; [9]", "value": 5.06, "unit": "mm"}, {"measurement": "Densitometry, diaphysis: Periosteal circumference", "setting": "[2]; [9]", "value": 8.12, "unit": "mm"}, {"measurement": "Densitometry, metaphysis: Total density", "setting": "[2]; [9]", "value": 571, "unit": "mg/cm3"}, {"measurement": "Densitometry, metaphysis: Trabecular area", "setting": "[2]; [9]", "value": 5.37, "unit": "mm2"}, {"measurement": "Densitometry, metaphysis: Trabecular density", "setting": "[2]; [9]", "value": 199, "unit": "mg/cm3"}, {"measurement": "Densitometry, diaphysis: Cortical area", "setting": "[2]; [10]", "value": 3.23, "unit": "mm2"}, {"measurement": "Densitometry, diaphysis: Cortical density", "setting": "[2]; [10]", "value": 1311, "unit": "mg/cm3"}, {"measurement": "Densitometry, diaphysis: Cortical thickness", "setting": "[2]; [10]", "value": 0.49, "unit": "mm"}, {"measurement": "Densitometry, diaphysis: Endosteal circumference", "setting": "[2]; [10]", "value": 5.08, "unit": "mm"}, {"measurement": "Densitometry, diaphysis: Periosteal circumference", "setting": "[2]; [10]", "value": 8.14, "unit": "mm"}, {"measurement": "Densitometry, metaphysis: Total density", "setting": "[2]; [10]", "value": 569, "unit": "mg/cm3"}, {"measurement": "Densitometry, metaphysis: Trabecular area", "setting": "[2]; [10]", "value": 5.52, "unit": "mm2"}, {"measurement": "Densitometry, metaphysis: Trabecular density", "setting": "[2]; [10]", "value": 211, "unit": "mg/cm3"}, {"measurement": "Densitometry, diaphysis: Cortical area", "setting": "[2]; [11]", "value": 3.21, "unit": "mm2"}, {"measurement": "Densitometry, diaphysis: Cortical density", "setting": "[2]; [11]", "value": 1307, "unit": "mg/cm3"}, {"measurement": "Densitometry, diaphysis: Cortical thickness", "setting": "[2]; [11]", "value": 0.49, "unit": "mm"}, {"measurement": "Densitometry, diaphysis: Endosteal circumference", "setting": "[2]; [11]", "value": 4.95, "unit": "mm"}, {"measurement": "Densitometry, diaphysis: Periosteal circumference", "setting": "[2]; [11]", "value": 8.06, "unit": "mm"}, {"measurement": "Densitometry, metaphysis: Total density", "setting": "[2]; [11]", "value": 586, "unit": "mg/cm3"}, {"measurement": "Densitometry, metaphysis: Trabecular area", "setting": "[2]; [11]", "value": 4.99, "unit": "mm2"}, {"measurement": "Densitometry, metaphysis: Trabecular density", "setting": "[2]; [11]", "value": 209, "unit": "mg/cm3"}, {"measurement": "Densitometry, diaphysis: Cortical area", "setting": "[2]; [12]", "value": 3.26, "unit": "mm2"}, {"measurement": "Densitometry, diaphysis: Cortical density", "setting": "[2]; [12]", "value": 1310, "unit": "mg/cm3"}, {"measurement": "Densitometry, diaphysis: Cortical thickness", "setting": "[2]; [12]", "value": 0.50, "unit": "mm"}, {"measurement": "Densitometry, diaphysis: Endosteal circumference", "setting": "[2]; [12]", "value": 5.01, "unit": "mm"}, {"measurement": "Densitometry, diaphysis: Periosteal circumference", "setting": "[2]; [12]", "value": 8.13, "unit": "mm"}, {"measurement": "Densitometry, metaphysis: Total density", "setting": "[2]; [12]", "value": 581, "unit": "mg/cm3"}, {"measurement": "Densitometry, metaphysis: Trabecular area", "setting": "[2]; [12]", "value": 5.25, "unit": "mm2"}, {"measurement": "Densitometry, metaphysis: Trabecular density", "setting": "[2]; [12]", "value": 214, "unit": "mg/cm3"}, {"measurement": "Densitometry, diaphysis: Cortical area", "setting": "[2]; [13]", "value": 3.23, "unit": "mm2"}, {"measurement": "Densitometry, diaphysis: Cortical density", "setting": "[2]; [13]", "value": 1309, "unit": "mg/cm3"}, {"measurement": "Densitometry, diaphysis: Cortical thickness", "setting": "[2]; [13]", "value": 0.49, "unit": "mm"}, {"measurement": "Densitometry, diaphysis: Endosteal circumference", "setting": "[2]; [13]", "value": 4.97, "unit": "mm"}, {"measurement": "Densitometry, diaphysis: Periosteal circumference", "setting": "[2]; [13]", "value": 8.08, "unit": "mm"}, {"measurement": "Densitometry, metaphysis: Total density", "setting": "[2]; [13]", "value": 574, "unit": "mg/cm3"}]}
